Results taken from patent US20260256789A1, “METHODS FOR TREATMENT OF CANCER” (Frontier Medicines Corporation, priority 2022, published 2026).

What follows are molecules tested against T1, KRAS G12C (GMPPNP-loaded) and cRAF Ras-binding domain (Homo sapiens, UniProt P01116, C118S/C51S/C80L/G12C) (assay: Inhibition of KRAS G12C and cRAF binding (AlphaScreen)). Details: KRAS G12C preloaded with GTP analogue GMPPNP, 2 hours preincubation.
T1 construct: truncated version comprising amino acids 1-169
T1 sequence (P01116 1-169 isoform P01116-2 G12C/C51S/C80L/C118S): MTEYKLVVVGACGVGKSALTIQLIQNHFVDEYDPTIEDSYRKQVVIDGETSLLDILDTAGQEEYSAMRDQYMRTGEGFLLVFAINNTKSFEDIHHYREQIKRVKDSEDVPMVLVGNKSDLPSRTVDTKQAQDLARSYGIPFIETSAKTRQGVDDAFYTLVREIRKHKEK
From the text: The ability of compounds of Formula (A), Formula (B) and Formula (C), and pharmaceutically acceptable salts and/or isotopologues thereof, to inhibit activity of the GTP-bound form of KRAS G12C can be tested using methods such as the in vitro assay described in Example 179 below. Example 179 describes determining, for various compounds, the half-maximal inhibition (IC50) of KRAS G12C loaded with GTP analogue GMPPNP from binding to cRaf, as the Ras-binding domain (RBD). Example 180 describes determining, for various compounds, the half-maximal inhibition (IC50) of KRAS G12C loaded with GTP analogue GMPPNP from binding to PI3Kα, as the Ras-binding domain (RBD). Example 181 describes testing compounds for the ability to inhibit cell viability in MCF10A G12C/A59G mutant, which abrogates GTPase activity, thus preventing hydrolysis of GTP to GDP.
The AlphaScreen technology was used to determine IC50s for compound inhibition of KRAS G12C (present as the Cys-light (C51S, C80L and C118S), truncated version comprising amino acids 1-169) and cRAF interaction. Compounds were diluted in 100% DMSO and each compound concentration was spotted at 200 nl/well onto low volume, white 384 well plates. The KRAS G12C contained a biotin-AviTag and the cRaf, as Ras-binding domain (amino acids 50-131, RBD), was GST-tagged. KRAS G12C was preloaded with the GTP analogue Guanosine 5′-[β,γ-imido]triphosphate (GMPPNP). The KRAS G12C was diluted in 25 mM Hepes, pH 7.4, 150 mM NaCl, 5 mM MgCl2, 0.01% TritonX-100 and 10 μM GMPPNP and added at 10 ul/well to compound-spotted plates resulting in a DMSO concentration of 2%. Plates were incubated for 2 hours. A mixture of RBD and the AlphaScreen streptavidin donor and glutathione acceptor beads diluted in 25 mM Hepes, pH 7.4, 150 mM NaCl, 5 mM MgCl2, 0.01% TritonX-100 and 2% DMSO was then added at 10 ul/well and incubated for 60-90 minutes before the samples were read for emission at 570 nm after excitation of the donor beads at 680 nm. All incubations were performed at room temperature. The final top compound concentration was 50 μM with 1:3 titrations for 10-point dose response curves. Final assay conditions were 0.5 nM KRAS G12C, 0.75 nM RBD and 5 μg/ml each of AlphaScreen donor and acceptor beads. IC50s were determined using nonlinear regression fit of [inhibitor] vs. response (4 parameters). […]
For Cc1cc(N)nc(-c2ncc3c(N(C)[C@@H]4CCN(C(=O)/C=C/c5nc(C(C)(C)O)no5)C4)nc(OC[C@@]45CCCN4C[C@H](F)C5)nc3c2F)c1C(F)(F)F [Example 139], the IC50 was under 10 nM.
Cc1noc(/C=C/C(=O)N2CC[C@@H](N(C)c3nc(OCC45CCCN4CCC5)nc4c3C[C@@H](C)[C@H](c3nc(N)cc(C)c3C(F)(F)F)C4)C2)n1 [Example 124] gave an IC50 of 100 to 500 nM.
Molecule C=CC(=O)N1CC[C@@H](N(C)c2nc(OC[C@@]34CCCN3C[C@H](F)C4)nc3c(F)c(-c4nc(N)cc(C)c4C4CC4)ncc23)C1 [Example 5, 1-((R)-3-((7-(6-amino-3-cyclopropyl-4-methylpyridin-2-yl)-8-fluoro-2-(((2R,7aS)-2-fluorotetrahydro-1H-pyrrolizin-7a(5H)-yl)methoxy)pyrido[4,3-d]pyrimidin-4-yl)(methyl)amino)pyrrolidin-1-yl)prop-2-en-1-one] has an IC50 of 100 to 500 nM.
Work on CN(C)CC#CC(=O)N1CC(CN(C)c2nc(OC[C@@]34CCCN3C[C@H](F)C4)nc3c(F)c(-c4nc(N)cc5cccc(Cl)c45)ncc23)C1 [Example 110] yielded an IC50 of 10 to 100 nM.
For C#Cc1cccc2[nH]nc(-c3ncc4c(N(C)[C@@H]5CCN(C(=O)C=C)C5)nc(OC[C@@]56CCCN5C[C@H](F)C6)nc4c3F)c12 [Example 216], the IC50 was at least 500 nM.
CN(C)C/C=C/C(=O)N1CC[C@@H](N(C)c2nc(OC[C@@]34CCCN3C[C@H](F)C4)nc3c(F)c(-c4cc(O)cc(Cl)c4C4CC4)ncc23)C1 [Example 197] gave an IC50 of under 10 nM.
With C=CC(=O)N1CC[C@@H](N(C)c2nc(OC[C@@]34CCCN3C[C@H](F)C4)nc3c(F)c(-c4cc(O)cc(F)c4C4CC4)ncc23)C1 [Example 206] the IC50 was under 10 nM.
With C=CC(=O)N1CC[C@@H](N(C)c2nc(OC[C@@]34CCCN3C[C@H](F)C4)nc3c(F)c(-c4cccn5nccc45)ncc23)C1 [Example 234] the IC50 was at least 500 nM.
Work on CC(C)c1noc(/C=C/C(=O)N2CC(CN(C)c3nc(OC[C@@]45CCCN4C[C@H](F)C5)nc4c(F)c(-c5nc(N)cc6cccc(Cl)c56)ncc34)C2)n1 [Example 118] yielded an IC50 of 100 to 500 nM.
CN(c1nc(OC[C@@]23CCCN2C[C@H](F)C3)nc2c(F)c(-c3cccc(Cl)c3C3CC3)ncc12)[C@@H]1CCN(C(=O)C#C[C@]2(C)CCCN2C)C1 [Example 208] gave an IC50 of 10 to 100 nM.
CN(c1nc(OC[C@@]23CCCN2C[C@H](F)C3)nc2c(F)c(-c3nc(N)cc4cccc(F)c34)ncc12)[C@@H]1CCN(C(=O)/C=C/c2nc(C(C)(F)F)no2)C1 [Example 92] was tested, and the IC50 was under 10 nM.
With Cc1cc(N)nc(-c2ncc3c(N(C)[C@@H]4CCN(C(=O)/C=C/c5nc(C6CC6)no5)C4)nc(OC[C@@]45CCCN4C[C@H](F)C5)nc3c2F)c1C(F)(F)F [Example 63, (E)-1-((R)-3-((7-(6-amino-4-methyl-3-(trifluoromethyl)pyridin-2-yl)-8-fluoro-2-(((2R,7aS)-2-fluorotetrahydro-1H-pyrrolizin-7a(5H)-yl)methoxy)pyrido[4,3-d]pyrimidin-4-yl)(methyl)amino)pyrrolidin-1-yl)-3-(3-cyclopropyl-1,2,4-oxadiazol-5-yl)prop-2-en-1-one] the IC50 was under 10 nM.
Molecule Cc1cc(N)nc(-c2ncc3c(N(C)CC4CN(C(=O)C#CCN5CCOCC5)C4)nc(OC[C@@]45CCCN4C[C@H](F)C5)nc3c2F)c1C(F)(F)F [Example 114] has an IC50 of 10 to 100 nM.
In the case of C=CC(=O)N1CC(CN(C)c2nc(OCC34CCCN3CCC4)nc3c(F)c(-c4nc(N)cc(C)c4C4CC4)ncc23)C1 [Example 131, 1-(3-(((7-(6-amino-3-cyclopropyl-4-methylpyridin-2-yl)-8-fluoro-2-((tetrahydro-1H-pyrrolizin-7a(5H)-yl)methoxy)pyrido[4,3-d]pyrimidin-4-yl)(methyl)amino)methyl)azetidin-1-yl)prop-2-en-1-one], the IC50 is reported as at least 500 nM.
In the case of Cc1cc(/C=C/C(=O)N2CC(CN(C)c3nc(OC[C@@]45CCCN4C[C@H](F)C5)nc4c(F)c(-c5cc(O)cc(Cl)c5C5CC5)ncc34)C2)nc(C)n1 [Example 204], the IC50 is reported as 100 to 500 nM.
With Cc1noc(/C=C/C(=O)N2CC[C@@H](N(C)c3nc(OC[C@@]45CCCN4C[C@H](F)C5)nc4c3CC(C)C(c3nc(N)cc(C)c3C(F)(F)F)C4)C2)n1 (stereo partly shown) [Example 115] the IC50 was under 10 nM.
